In the assay the test system is non-cognate duplex (DNA, duplex) GGGTGAGGAGGAGGGAGATCGGTC/TGACCGATCTCCCTCCTCCTCACCC
In words: fluorescence titration. The conditions noted are these: 0.025 M Tris-HCl, pH 7.5, room temperature; probe 12 µM; fluorescence only 1.5-fold up.

Consider `CN(C)CCCNC(=O)CCNC(=O)c1cc(NC(=O)c2cc(NC(=O)c3cc(NC(=O)c4cc(NC(=O)C(N)CCNC(=O)c5cc(NC(=O)c6cc(NC(=O)c7cc(NC(=O)c8nc(NC(=O)CCCNC(=O)CCc9cn(-c%10cc%11ccc(O)cc%11oc%10=O)nn9)cn8C)cn7C)cn6C)cn5C)cn4C)cn3C)cn2C)cn1C` (stereo not shown), for which the binding result is “weak”.

The values are drawn from paper PMC4979877 (2016).
